Earlier results as cited in US20230338413A1, “ORAL DELIVERY OF HEPARINS” (GUANGZHOU DAZHOU BIOMEDICINE LTD., priority 2021, published 2023).

**Q.** Which Effects on coagulation (SNAC by itself, initial clinical studies) does the source give for `O=C([O-])CCCCCCCNC(=O)c1ccccc1O.[Na+]` [SNAC, sodium N-(8-(2-hydroxybenzoyl)amino)caprylate] here?
**A.** Its Effects on coagulation is “no effects on coagulation”.

**Q.** What about the “Measurements of anticoagulation (aPTT, TFPI and anti-Factors IIa and Xa levels)” value (human subjects, single oral dose: 30,000 USP Heparin Units alone or SNAC alone 1.4 to 10.5 g) of the same molecule?
**A.** The value was “did not change”.
